Measurements taken from ChEMBL document CHEMBL3600288, “Development of Selective Covalent Janus Kinase 3 Inhibitors” (J Med Chem, 2015).

What was measured:
Format in all cases: ADME, organism-based
[1] = Tmax in Swiss albino mouse at 10 mg/kg, po; settings: in vivo
[2] = Oral bioavailability in Swiss albino mouse at 10 mg/kg; settings: in vivo
[3] = Volume of distribution at steady state in Swiss albino mouse at 2 mg/kg, iv; settings: in vivo, read-out: Vdss
[4] = Cmax in Swiss albino mouse at 2 mg/kg, iv; design: dose 2 mg/kg, route intravenous; settings: in vivo
Mus musculus [5] = test: AUClast in Swiss albino mouse at 10 mg/kg, po; design: dose 10 mg/kg, route oral, time 0 - last; settings: in vivo
[6] = Cmax in Swiss albino mouse at 10 mg/kg, po; design: dose 10 mg/kg, route oral; settings: in vivo
Mus musculus [7] = test: AUClast in Swiss albino mouse at 2 mg/kg, iv; design: dose 2 mg/kg, time 0 - last, route intravenous; settings: in vivo

Tmax [1]: 30 min
bioavailability [2]: 66%
Vd [3]: 18.4 L/kg
Cmax [4]: 159 ng/mL
AUClast (Mus musculus [5]): 795.29 h/ng/mL
Cmax [6]: 204 ng/mL
AUClast (Mus musculus [7]): 241.3 h/ng/mL
Compound: C=CC(=O)Nc1cccc(CNc2nc(Nc3ccc(N4CCN(C)CC4)cc3OC)ncc2Cl)c1
